Reference: BindingDB's records for doi:10.1016/j.bmcl.2011.01.015 (Incyte, 2011)

Test: Antagonist activity at human CCR5 receptor by chemotaxis assay

CO[C@@H]1COCC[C@@H]1N[C@@H]1CC[C@](CC(F)(F)F)(C(=O)N2CCN(c3cc(C(F)(F)F)ccn3)CC2)C1 [((1S,3R)-3-((3S,4S)-3-methoxy-tetrahydro-2H-pyran-4-ylamino)-1-(2,2,2-trifluoroethyl)cyclopentyl)(4-(4-(trifluoromethyl)pyridin-2-yl)piperazin-1-yl)methanone]
IC50: 11 nM
